Measurements published in article PMC3663987 (Parasitology Research, 2013).

Target: P-glycoprotein (Pgp, ABCB1) (Homo sapiens, UniProt P08183)
Experiment: Pgp-Glo ATPase stimulation assay, recombinant human Pgp membranes
Format: biochemical

Chain of P-glycoprotein (Pgp, ABCB1) (P08183 whole entry): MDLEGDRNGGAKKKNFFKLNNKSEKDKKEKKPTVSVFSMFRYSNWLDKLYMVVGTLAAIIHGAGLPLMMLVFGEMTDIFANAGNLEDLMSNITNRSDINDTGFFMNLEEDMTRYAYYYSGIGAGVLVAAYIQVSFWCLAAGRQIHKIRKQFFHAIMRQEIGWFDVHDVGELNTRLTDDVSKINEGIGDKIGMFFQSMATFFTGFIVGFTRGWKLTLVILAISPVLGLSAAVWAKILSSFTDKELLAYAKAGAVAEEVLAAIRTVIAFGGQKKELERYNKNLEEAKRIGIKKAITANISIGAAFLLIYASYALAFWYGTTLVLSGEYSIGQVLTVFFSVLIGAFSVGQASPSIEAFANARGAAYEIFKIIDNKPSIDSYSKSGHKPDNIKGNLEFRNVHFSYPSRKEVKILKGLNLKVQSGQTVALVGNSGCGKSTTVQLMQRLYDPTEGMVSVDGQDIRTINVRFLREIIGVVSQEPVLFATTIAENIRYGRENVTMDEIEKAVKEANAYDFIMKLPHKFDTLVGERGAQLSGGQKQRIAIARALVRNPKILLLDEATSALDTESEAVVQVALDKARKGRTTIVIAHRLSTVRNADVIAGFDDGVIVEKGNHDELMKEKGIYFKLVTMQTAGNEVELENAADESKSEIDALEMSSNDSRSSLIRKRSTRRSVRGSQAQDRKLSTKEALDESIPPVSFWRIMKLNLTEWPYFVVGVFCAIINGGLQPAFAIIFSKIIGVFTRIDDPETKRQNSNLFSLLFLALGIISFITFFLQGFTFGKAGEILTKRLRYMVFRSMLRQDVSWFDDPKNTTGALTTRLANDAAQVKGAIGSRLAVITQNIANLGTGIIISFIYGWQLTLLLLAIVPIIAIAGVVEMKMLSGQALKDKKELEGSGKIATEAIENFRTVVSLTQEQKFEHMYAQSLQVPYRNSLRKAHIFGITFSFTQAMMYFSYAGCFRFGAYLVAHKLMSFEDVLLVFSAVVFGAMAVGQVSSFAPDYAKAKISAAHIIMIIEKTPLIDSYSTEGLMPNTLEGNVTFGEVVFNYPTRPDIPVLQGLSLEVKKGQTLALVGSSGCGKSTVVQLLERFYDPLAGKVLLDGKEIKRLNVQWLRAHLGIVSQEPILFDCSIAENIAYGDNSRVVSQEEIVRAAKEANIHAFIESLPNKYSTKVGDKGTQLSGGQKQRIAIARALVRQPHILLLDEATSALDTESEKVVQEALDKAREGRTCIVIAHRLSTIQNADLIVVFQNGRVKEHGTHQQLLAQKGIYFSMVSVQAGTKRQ

- EC50: 277 µM
SMILES: O=C(Cn1ccnc1[N+](=O)[O-])NCc1ccccc1 [Bz, N-Benzyl-2-nitro-1H-imidazole-1-acetamide]
